Assays:
[1] = molecular target: T1, Type-1 angiotensin II receptor (Homo sapiens, UniProt P30556); experiment: Inhibition of AT1 receptor
T1 sequence (P30556 whole entry): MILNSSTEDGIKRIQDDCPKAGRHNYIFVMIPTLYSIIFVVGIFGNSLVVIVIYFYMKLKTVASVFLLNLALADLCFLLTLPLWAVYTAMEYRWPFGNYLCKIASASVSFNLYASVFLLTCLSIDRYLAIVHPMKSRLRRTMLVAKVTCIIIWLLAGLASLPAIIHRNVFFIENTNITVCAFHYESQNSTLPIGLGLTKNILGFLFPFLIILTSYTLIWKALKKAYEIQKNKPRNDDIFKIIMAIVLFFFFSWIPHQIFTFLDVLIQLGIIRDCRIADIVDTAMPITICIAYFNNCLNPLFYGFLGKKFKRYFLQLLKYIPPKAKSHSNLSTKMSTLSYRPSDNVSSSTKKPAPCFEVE

[2] = Selectivity ratio of IC50 for AT1 receptor to IC50 for APJ receptor (unknown receptor)
Apelin receptor = molecular target: T2, Apelin receptor (Homo sapiens, UniProt P35414); experiment: Antagonist activity at APJ receptor expressed in CHOK1 cells assessed as inhibition of apelin13-induced beta-arrestin recruitment after 90 mins by luminescence assay; type: functional, cell-based, CHO-K1
T2 sequence (P35414 whole entry): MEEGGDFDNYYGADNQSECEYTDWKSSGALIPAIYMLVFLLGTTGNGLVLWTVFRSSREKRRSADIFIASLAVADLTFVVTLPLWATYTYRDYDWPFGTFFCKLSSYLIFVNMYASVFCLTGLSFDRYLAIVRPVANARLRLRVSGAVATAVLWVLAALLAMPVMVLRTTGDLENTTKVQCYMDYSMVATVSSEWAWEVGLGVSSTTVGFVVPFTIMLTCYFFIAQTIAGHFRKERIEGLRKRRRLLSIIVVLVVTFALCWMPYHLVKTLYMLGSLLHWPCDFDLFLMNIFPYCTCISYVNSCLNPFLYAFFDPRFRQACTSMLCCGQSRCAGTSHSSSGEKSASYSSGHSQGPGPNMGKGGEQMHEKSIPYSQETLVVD

| SMILES | IC50 [1] [µM] | Ratio IC50 [2] | IC50 (Apelin receptor) [µM] |
| --- | --- | --- | --- |
| O=C(Oc1coc(CSc2ncccn2)cc1=O)c1ccc(Br)cc1 | > 79 | – | – |
| Cc1ccnc(SCc2cc(=O)c(OC(=O)c3ccc(C#N)cc3)co2)n1 | > 79 | > 7 | – |
| CN(C)S(=O)(=O)c1ccc(C(=O)Oc2coc(CSc3ncccn3)cc2=O)cc1 | > 79 | – | > 79 |
| Cc1ccnc(SCc2cc(=O)c(OC(=O)c3cccc([N+](=O)[O-])c3)co2)n1 | > 79 | – | – |
| Cc1cc(C)nc(SCc2cc(=O)c(OS(=O)(=O)c3ccc([N+](=O)[O-])cc3)co2)n1 | > 79 | – | > 79 |
| O=C(Oc1coc(CSc2ncccn2)cc1=O)c1cccc([N+](=O)[O-])c1 | > 79 | – | – |
| COc1ccc(SCc2cc(=O)c(OC(=O)c3ccc(Cl)c([N+](=O)[O-])c3)co2)cc1 | > 79 | > 9 | 8.27 |
| CCCCOc1ccc(C(=O)Oc2coc(CSc3ncccn3)cc2=O)cc1 | > 79 | – | > 79 |
| Cc1ccnc(SCc2cc(=O)c(OC(=O)c3ccc([N+](=O)[O-])cc3)co2)n1 | > 79 | > 23 | – |
| Cc1ccnc(SCc2cc(=O)c(NC(=O)c3ccc([N+](=O)[O-])cc3)co2)n1 | > 79 | – | > 79 |
| Cc1ccnc(SCc2cc(=O)c(OC(=O)c3ccc(C)c([N+](=O)[O-])c3)co2)n1 | > 79 | > 17 | – |
| Cc1ccc(C(=O)Oc2coc(CSc3ncccn3)cc2=O)cc1C | > 79 | – | > 79 |
| CCN(CC)S(=O)(=O)c1ccc(C(=O)Oc2coc(CSc3ncccn3)cc2=O)cc1 | > 79 | – | > 79 |
| Cc1ccnc(SCc2cc(=O)c(OC(=O)c3ccc(S(=O)(=O)N4CCCC4)cc3)co2)n1 | > 79 | – | – |
| Cc1ccnc(SCc2cc(=O)c(OC(=O)c3cnco3)co2)n1 | > 79 | – | > 79 |
| O=C(Oc1coc(CSc2ncccn2)cc1=O)c1ccccc1 | > 79 | – | > 79 |

| SMILES | IC50 [1] [µM] | Ratio IC50 [2] | IC50 (Apelin receptor) [µM] |
| --- | --- | --- | --- |
| Cc1ccnc(SCc2cc(=O)c(OCc3ccc(Cl)c([N+](=O)[O-])c3)co2)n1 | > 79 | – | > 79 |
| O=C(Oc1coc(CSc2ncccn2)cc1=O)c1ccc(-c2ccccc2)cc1 | > 79 | – | > 79 |
| Cc1ccnc(SCc2cc(=O)c(OC(=O)C(C)(C)C)co2)n1 | > 79 | – | > 79 |
| CC(C)(C)c1ccc(C(=O)Oc2coc(CSc3ncccn3)cc2=O)cc1 | > 79 | – | > 79 |
| O=c1cc(CSc2ccc(F)cc2)occ1O | > 79 | – | > 79 |
| Cc1ccnc(SCc2cc(=O)c(OC(=O)c3ccc([N+](=O)[O-])o3)co2)n1 | > 79 | – | > 79 |
| O=C(Oc1coc(CSc2ncccn2)cc1=O)c1ccc(Cl)cc1 | > 79 | – | – |
| Cc1ccnc(SCc2cc(=O)c(OC(=O)c3ccccc3C)co2)n1 | > 79 | – | > 79 |
| Cc1ccnc(SCc2cc(=O)c(OC(=O)c3ccc(Cl)cc3)co2)n1 | > 79 | – | > 79 |
| COc1cc(C(=O)Oc2coc(CSc3ncccn3)cc2=O)c([N+](=O)[O-])cc1OC | > 79 | – | > 79 |
| O=C(Oc1coc(CSc2ncccn2)cc1=O)c1cc(Cl)ccc1[N+](=O)[O-] | > 79 | – | > 79 |
| Cc1ccnc(SCc2cc(=O)c(NC(=O)c3ccccc3)co2)n1 | > 79 | – | > 79 |
| Cc1cc(C)nc(SCc2cc(=O)c(O)co2)n1 | > 79 | – | > 79 |
| Cc1ccnc(SCc2cc(=O)c(OC(=O)c3cc([N+](=O)[O-])ccc3Cl)co2)n1 | > 79 | – | – |
| Cc1ccnc(SCc2cc(=O)c(OC(=O)c3cccc(Cl)c3)co2)n1 | > 79 | – | > 79 |
| COc1ccc(C(=O)Oc2coc(CSc3ncccn3)cc2=O)cc1 | > 79 | – | > 79 |

Second part, the compound after the results:

| IC50 [1] [µM] | Ratio IC50 [2] | IC50 (Apelin receptor) [µM] | SMILES |
| --- | --- | --- | --- |
| > 79 | > 13 | – | O=C(Oc1coc(CSc2ncccn2)cc1=O)c1ccc(Cl)c([N+](=O)[O-])c1 |
| > 79 | – | > 79 | O=C(Oc1coc(CSc2ncccn2)cc1=O)c1ccc(S(=O)(=O)N2CCCCC2)cc1 |
| > 79 | > 17 | 4.53 | O=C(Oc1coc(CSc2ccc(Cl)cc2)cc1=O)c1ccc(Cl)c([N+](=O)[O-])c1 |
| > 79 | – | > 79 | Cc1ccc(C(=O)Oc2coc(CSc3nccc(C)n3)cc2=O)cc1 |
| > 79 | – | > 79 | Cc1ccnc(SCc2cc(=O)c(OC(=O)C(C)C)co2)n1 |
| > 79 | – | > 79 | Cc1ccnc(SCc2cc(=O)c(OC(=O)c3ccccc3)co2)n1 |
| > 79 | – | – | Cc1ccnc(SCc2cc(=O)c(OC(=O)c3ccc(C(F)(F)F)cc3)co2)n1 |
| > 79 | – | > 79 | O=C(Oc1coc(CSc2ncccn2)cc1=O)c1ccc(S(=O)(=O)N2CCCC2)cc1 |
| > 79 | > 11 | – | Cc1ccc(C(=O)Oc2coc(CSc3ncccn3)cc2=O)cc1[N+](=O)[O-] |
| > 79 | – | > 79 | COc1cccc(C(=O)Oc2coc(CSc3nccc(C)n3)cc2=O)c1 |
| > 79 | – | > 79 | Cc1ccnc(SCc2cc(=O)c(O)co2)n1 |
| > 79 | – | > 79 | Cc1cccc(C(=O)Oc2coc(CSc3nccc(C)n3)cc2=O)c1 |
| > 79 | – | > 79 | Cc1ccnc(SCc2cc(=O)c(OC(=O)c3ccc(OC(F)(F)F)cc3)co2)n1 |
| > 79 | – | > 79 | O=c1cc(CSc2ccccc2)occ1O |
| > 79 | – | > 79 | Cc1ccnc(SCc2cc(=O)c(OC(=O)c3ccco3)co2)n1 |
| > 79 | – | > 79 | Cc1ccnc(SCc2cc(=O)c(OC(=O)c3cccc(C#N)c3)co2)n1 |

| IC50 [1] [µM] | Ratio IC50 [2] | IC50 (Apelin receptor) [µM] | SMILES |
| --- | --- | --- | --- |
| > 79 | – | > 79 | O=C(Oc1coc(CSc2ncccn2)cc1=O)c1ccc(S(=O)(=O)N2CCOCC2)cc1 |
| > 79 | – | – | Cc1ccnc(SCc2cc(=O)c(OC(=O)c3cc(Cl)ccc3[N+](=O)[O-])co2)n1 |
| > 79 | – | > 79 | CC(=O)Oc1coc(CSc2nccc(C)n2)cc1=O |
| > 79 | – | > 79 | COc1ccc(C(=O)Oc2coc(CSc3nccc(C)n3)cc2=O)cc1 |
| > 79 | – | > 79 | Cc1ccnc(SCc2cc(=O)c(OCc3ccccc3)co2)n1 |
| > 79 | – | > 79 | O=c1cc(CSc2ncccn2)occ1O |
| > 79 | – | > 79 | O=C(Oc1coc(CSc2ncccn2)cc1=O)c1ccc(F)cc1 |
| > 79 | – | > 79 | CCOc1ccc(C(=O)Oc2coc(CSc3ncccn3)cc2=O)cc1 |
| > 79 | – | – | Cc1c(C(=O)Oc2coc(CSc3ncccn3)cc2=O)cccc1[N+](=O)[O-] |
| > 79 | – | > 79 | Cc1ccnc(SCc2cc(=O)c(OC(=O)c3ccsc3)co2)n1 |
| > 79 | – | > 59 | Cc1ccnc(SCc2cc(=O)c(OC(=O)c3ccccc3Cl)co2)n1 |
| > 79 | – | > 79 | Cc1ccc(C(=O)Oc2coc(CSc3ncccn3)cc2=O)cc1 |
| > 79 | – | > 79 | CC(C)Oc1ccc(C(=O)Oc2coc(CSc3ncccn3)cc2=O)cc1 |
| > 79 | – | – | O=C(Oc1coc(CSc2ncccn2)cc1=O)c1ccc(C(F)(F)F)cc1 |
| > 79 | – | > 79 | Cc1cc(C)nc(SCc2cc(=O)c(OS(=O)(=O)c3ccccc3)co2)n1 |
| > 79 | – | > 79 | Cc1ccnc(SCc2cc(=O)c(OC(=O)c3ccc(F)cc3)co2)n1 |

Reference: ChEMBL document CHEMBL2157975 (Bioorg Med Chem Lett, 2012)
